# pKi: −log10 of the molar value. Read-outs that look alike come from different tables or passages of the source.
# Tests used:
# [1] = target: T1, cloned human H3 receptor, stably expressed in SK-N-MC cells (Homo sapiens, UniProt Q9Y5N1); assay: H3 receptor binding (N-[3H]-α-methylhistamine displacement); settings: SK-N-MC membranes, 0.8 nM N-[3H]-α-methylhistamine
# T1 construct: expressed in transfected cells
# [2] = target: T2, human H3 receptor (SK-N-MC cells) (Homo sapiens, UniProt Q9Y5N1); assay: Cyclic AMP accumulation (β-galactosidase reporter, Schild analysis vs histamine); assay type: cell-based
# T2 construct: expressed in transfected cells; host or cells: SK-N-MC sublines with CRE-beta-galactosidase reporter
# [3] = target: T3, human SERT (HEK293 membranes) (Homo sapiens, UniProt P31645); assay: Human SERT binding (3H-citalopram displacement)
# T3 construct: purchased Perkin-Elmer; host or cells: HEK293 membranes
# T3 sequence (P31645 whole entry): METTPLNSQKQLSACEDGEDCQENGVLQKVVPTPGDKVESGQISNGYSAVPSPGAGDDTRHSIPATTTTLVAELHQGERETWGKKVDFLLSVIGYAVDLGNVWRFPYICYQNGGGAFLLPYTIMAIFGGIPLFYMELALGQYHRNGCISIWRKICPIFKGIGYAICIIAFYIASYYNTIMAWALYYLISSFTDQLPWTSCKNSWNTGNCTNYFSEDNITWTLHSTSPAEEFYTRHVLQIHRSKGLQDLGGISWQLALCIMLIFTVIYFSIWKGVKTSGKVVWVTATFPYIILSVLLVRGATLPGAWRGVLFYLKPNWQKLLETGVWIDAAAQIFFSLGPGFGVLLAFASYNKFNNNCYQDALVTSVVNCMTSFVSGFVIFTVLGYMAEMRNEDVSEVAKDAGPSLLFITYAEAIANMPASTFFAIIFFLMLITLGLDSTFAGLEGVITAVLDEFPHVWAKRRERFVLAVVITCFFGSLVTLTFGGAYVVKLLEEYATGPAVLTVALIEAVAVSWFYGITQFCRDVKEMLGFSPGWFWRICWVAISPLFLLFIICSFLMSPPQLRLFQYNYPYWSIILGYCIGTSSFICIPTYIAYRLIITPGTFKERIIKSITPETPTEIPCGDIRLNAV
# T2 sequence (Q9Y5N1 whole entry): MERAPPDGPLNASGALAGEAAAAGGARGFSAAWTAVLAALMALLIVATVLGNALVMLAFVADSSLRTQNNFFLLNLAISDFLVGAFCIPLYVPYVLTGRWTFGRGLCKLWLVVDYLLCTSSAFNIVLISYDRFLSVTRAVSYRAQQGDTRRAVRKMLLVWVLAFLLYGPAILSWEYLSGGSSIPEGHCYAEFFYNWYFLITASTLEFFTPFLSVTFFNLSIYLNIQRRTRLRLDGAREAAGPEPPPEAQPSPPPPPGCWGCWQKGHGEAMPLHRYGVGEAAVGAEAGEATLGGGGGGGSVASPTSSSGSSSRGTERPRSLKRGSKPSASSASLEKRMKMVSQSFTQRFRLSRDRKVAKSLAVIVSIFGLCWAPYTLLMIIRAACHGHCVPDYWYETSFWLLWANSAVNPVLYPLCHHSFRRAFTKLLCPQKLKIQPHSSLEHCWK
# T1 sequence (Q9Y5N1 whole entry): as above
SMILES,pKi [1],Kb ([2]; read-out: H3 pA2 (converted)),pKi [3],Kb [2]
c1ccc([C@H]2CN3CCC[C@H]3c3cc(OCCCN4CCCCC4)ccc32)nc1 (relative stereo) [Example 25],9.10,,,0.1 nM
Nc1ccc([C@H]2CN3CCC[C@H]3c3cc(OCCCN4CCCCC4)ccc32)cc1 (relative stereo) [Example 3],9.30,0.0794 nM,8.10,
Ic1cccc([C@H]2CN3CCC[C@H]3c3cc(OCCCN4CCCCC4)ccc32)c1 (relative stereo) [Example 32],9.00,0.316 nM,7.96,
"O=[N+]([O-])c1cccc([C@H]2CN3CCC[C@H]3c3cc(OCCCN4CCCCC4)ccc32)c1 (relative stereo) [Example 4A, Cis-6-(3-Nitro-phenyl)-9-(3-piperidin-1-yl-propoxy)-1,2,3,5,6,10b-hexahydro-pyrrolo[2,1-a]isoquinoline]",9.00,0.126 nM,8.40,
"O=[N+]([O-])c1ccc([C@H]2CN3CCC[C@H]3c3cc(OCCCN4CCCCC4)ccc32)cc1 (relative stereo) [Example 2A, Cis-6-(4-Nitro-phenyl)-9-(3-piperidin-1-yl-propoxy)-1,2,3,5,6,10b-hexahydro-pyrrolo[2,1-a]isoquinoline]",9.00,0.398 nM,8.22,
C#Cc1ccc([C@H]2CN3CCC[C@H]3c3cc(OCCCN4CCCCC4)ccc32)cc1 (relative stereo) [Example 37],8.40,1.58 nM,9.10,
COc1ccccc1[C@H]1CN2CCC[C@H]2c2cc(OCCCN3CCCCC3)ccc21 (relative stereo) [Example 13A],,,7.68,
C#Cc1cccc([C@H]2CN3CCC[C@H]3c3cc(OCCCN4CCCCC4)ccc32)c1 (relative stereo) [Example 34],8.70,1 nM,8.52,
COc1cc([C@H]2CN3CCC[C@H]3c3cc(OCCCN4CCCCC4)ccc32)cc(OC)c1OC (relative stereo) [Example 22],9.10,0.631 nM,6.66,
COc1ccc([C@H]2CN3CCC[C@H]3c3cc(OCCCN4CCC(F)CC4)ccc32)cc1 (relative stereo) [Example 47],8.52,,8.30,
COc1ccc(OC)c([C@H]2CN3CCC[C@H]3c3cc(OCCCN4CCCCC4)ccc32)c1 (relative stereo) [Example 20],9.00,1 nM,7.37,
COc1ccc([C@H]2CN3CCC[C@H]3c3cc(OCC4CCN(C(C)C)CC4)ccc32)cc1 (relative stereo) [Example 29],9.05,,8.70,
Brc1ccc([C@H]2CN3CCC[C@H]3c3cc(OCCCN4CCCCC4)ccc32)cc1 (relative stereo) [Example 40],8.52,,7.74,
c1cncc([C@H]2CN3CCC[C@H]3c3cc(OCCCN4CCCCC4)ccc32)c1 (relative stereo) [Example 26],9.10,0.0794 nM,,
"Cc1ccc([C@H]2CN3CCC[C@H]3c3cc(OCCCN4CCCCC4)ccc32)cc1 (relative stereo) [Example 5A, Cis-9-(3-Piperidine-1-yl-propoxy)-6-p-tolyl-1,2,3,5,6,10b-hexahydro-pyrrolo[2,1-a]isoquinoline]",8.70,2.51 nM,8.40,
COc1cc(OC)cc([C@H]2CN3CCC[C@H]3c3cc(OCCCN4CCCCC4)ccc32)c1 (relative stereo) [Example 21],9.00,0.794 nM,8.30,
Oc1cccc([C@H]2CN3CCC[C@H]3c3cc(OCCCN4CCCCC4)ccc32)c1 (relative stereo) [Example 15],9.15,0.126 nM,8.52,
"FC(F)(F)c1ccc([C@H]2CN3CCC[C@H]3c3cc(OCCCN4CCCCC4)ccc32)cc1 (relative stereo) [Example 7A, Cis-9-(3-Piperidin-1-yl-propoxy)-6-(4-trifluoromethyl-phenyl)-1,2,3,5,6,10b-hexahydro-pyrrolo[2,1-a]isoquinoline]",8.30,6.31 nM,7.92,
COc1ccc([C@H]2CN3CCC[C@H]3c3cc(OCCCN4CCOCC4)ccc32)cc1 (relative stereo) [Example 38],,,8.15,
Cc1cccc([C@H]2CN3CCC[C@H]3c3cc(OCCCN4CCCCC4)ccc32)c1 (relative stereo) [Example 31],7.92,,7.55,
"O=[N+]([O-])c1cccc([C@@H]2CN3CCC[C@H]3c3cc(OCCCN4CCCCC4)ccc32)c1 (relative stereo) [Example 4B, Trans-6-(3-Nitro-phenyl)-9-(3-piperidin-1-yl-propoxy)-1,2,3,5,6,10b-hexahydro-pyrrolo[2,1-a]isoquinoline]",9.00,0.158 nM,,
"FC(F)(F)c1ccc([C@@H]2CN3CCC[C@H]3c3cc(OCCCN4CCCCC4)ccc32)cc1 (relative stereo) [Example 7B, Trans-9-(3-Piperidin-1-yl-propoxy)-6-(4-trifluoromethyl-phenyl)-1,2,3,5,6,10b-hexahydro-pyrrolo[2,1-a]isoquinoline]",8.70,6.31 nM,,
FC(F)(F)Sc1ccc([C@H]2CN3CCC[C@H]3c3cc(OCCCN4CCOCC4)ccc32)cc1 (relative stereo) [Example 61],7.54,,,
c1cnn(-c2ccc([C@H]3CN4CCC[C@H]4c4cc(OCCCN5CCOCC5)ccc43)cc2)c1 (relative stereo) [Example 49],8.30,,,
c1ncc([C@H]2CN3CCC[C@H]3c3cc(OCCCN4CCOCC4)ccc32)s1 (relative stereo) [Example 52],8.40,,,
c1cc([C@H]2CN3CCC[C@H]3c3cc(OCCCN4CCOCC4)ccc32)[nH]n1 (relative stereo) [Example 54],8.40,,,

# More lines, now with the values ahead:
pKi [1],Kb ([2]; read-out: H3 pA2 (converted)),pKi [3],Kb [2],SMILES
8.52,1.58 nM,5.70,,"CSc1ccc([C@@H]2CN3CCC[C@H]3c3ccc(C#CCCN4CCCCC4)cc32)cc1 (relative stereo) [Example 97A, Cis-6-(4-methylsulfanyl-phenyl)-8-(4-piperidin-1-yl-but-1-ynyl)-1,2,3,5,6,10b-hexahydro-pyrrolo[2,1-a]isoquinoline]"
8.40,3.98 nM,8.15,,"Ic1ccc([C@@H]2CN3CCC[C@H]3c3cc(OCCCN4CCCCC4)ccc32)cc1 (relative stereo) [Example 35A, Cis-6-(4-Iodo-phenyl)-9-(3-piperidin-1-yl-propoxy)-1,2,3,5,6,10b-hexahydro-pyrrolo[2,1-a]isoquinoline]"
8.70,,8.22,,"Clc1ccc([C@@H]2CN3CCC[C@H]3c3cc(OCCCN4CCCCC4)ccc32)cc1 (relative stereo) [Example 66A, Cis-6-(4-Chloro-phenyl)-9-(3-piperidin-1-yl-propoxy)-1,2,3,5,6,10b-hexahydro-pyrrolo[2,1-a]isoquinoline]"
8.40,10 nM,8.70,,"CSc1ccc([C@@H]2CN3CCC[C@H]3c3cc(C#CCCN4CCCCC4)ccc32)cc1 (relative stereo) [Example 98A, Cis-6-(4-methylsulfanyl-phenyl)-9-(4-piperidin-1-yl-but-1-ynyl)-1,2,3,5,6,10b-hexahydro-pyrrolo[2,1-a]isoquinoline]"
9.00,0.631 nM,,,"Clc1ccccc1[C@H]1CN2CCC[C@H]2c2cc(OCCCN3CCCCC3)ccc21 (relative stereo) [Example 12B, Trans-6-(2-Chloro-phenyl)-9-(3-piperidin-1-yl-propoxy)-1,2,3,5,6,10b-hexahydro-pyrrolo[2,1-a]isoquinoline]"
7.92,10 nM,,,"CSc1ccc([C@H]2CN3CCC[C@H]3c3ccc(C#CCCN4CCCCC4)cc32)cc1 (relative stereo) [Example 97B, Trans-6-(4-methylsulfanyl-phenyl)-8-(4-piperidin-1-yl-but-1-ynyl)-1,2,3,5,6,10b-hexahydro-pyrrolo[2,1-a]isoquinoline]"
9.00,0.794 nM,,,"Fc1ccc([C@H]2CN3CCC[C@H]3c3cc(OCCCN4CCCCC4)ccc32)cc1 (relative stereo) [Example 14B, Trans-6-(4-Fluoro-phenyl)-9-(3-piperidin-1-yl-propoxy)-1,2,3,5,6,10b-hexahydro-pyrrolo[2,1-a]isoquinoline]"
8.70,3.16 nM,,,"Ic1ccc([C@H]2CN3CCC[C@H]3c3cc(OCCCN4CCCCC4)ccc32)cc1 (relative stereo) [Example 35B, Trans-6-(4-Iodo-phenyl)-9-(3-piperidin-1-yl-propoxy)-1,2,3,5,6,10b-hexahydro-pyrrolo[2,1-a]isoquinoline]"
8.70,,8.40,,"CSc1ccc([C@H]2CN3CCC[C@H]3c3cc(OCCCN4CCCCC4)ccc32)cc1 (relative stereo) [Example 39A, Cis-6-(4-Methylsulfanyl-phenyl)-9-(3-piperidin-1-yl-propoxy)-1,2,3,5,6,10b-hexahydro-pyrrolo[2,1-a]isoquinoline]"
8.52,2.51 nM,,,"CSc1ccc([C@H]2CN3CCC[C@H]3c3cc(C#CCCN4CCCCC4)ccc32)cc1 (relative stereo) [Example 98B, Trans-6-(4-methylsulfanyl-phenyl)-9-(4-piperidin-1-yl-but-1-ynyl)-1,2,3,5,6,10b-hexahydro-pyrrolo[2,1-a]isoquinoline]"
8.22,,,,"c1cn(-c2ccc([C@@H]3CN4CCC[C@H]4c4cc(OCCCN5CCOCC5)ccc43)cc2)cn1 (relative stereo) [Example 48A, Cis-6-(4-Imidazol-1-yl-phenyl)-9-(3-morpholin-4-yl-propoxy)-1,2,3,5,6,10b-hexahydro-pyrrolo[2,1-a]isoquinoline]"
9.52,,,,"c1cc([C@H]2CN3CCC[C@H]3c3cc(OCCCN4CCCCC4)ccc32)ccn1 (relative stereo) [Example 27B, Trans-9-(3-Piperidin-1-yl-propoxy)-6-pyridin-4-yl-1,2,3,5,6,10b-hexahydro-pyrrolo[2,1-a]isoquinoline]"

# Reference: patent US8273762B2, “Hexahydro-pyrrolo-isoquinoline compounds” (Janssen Pharmaceutica NV, priority 2005, dated 2012)
